Data: patent US12281149B2, “Modulators of G-protein coupled receptors” (priority 2021, dated 2025)
Where two headings read alike, the source gives them in different places. *1 amine or outer side, *2 acyl side, *3 side chain or, on linkers, in order; H or OH if unused. Where a SMILES comes first, the peptide text is derived from it. Side-chain parts run from the residue outwards. [ ]: non-standard residue; d: D form. The star is where a group is joined. Isobutyryl(2-(3-CN-5-F-Ph)) = CC(C)(C(=O)*)c1cc(F)cc(C#N)c1; NH(4-Cl-3-CF3-phenyl) = FC(F)(F)c1cc(N*)ccc1Cl; C20 diacid = O=C(O)CCCCCCCCCCCCCCCCCCC(=O)*; γGlu = O=C(O)[C@H](CCC(=O)[*:2])N[*:1]; Phe(2-F) = N[C@@H](Cc1ccccc1F)C(=O)O; X80 = CC1CC(C(=O)*)(n2cccn2)CCO1; X60 = O=C(C1(c2cccnc2)CCCC1)*; X29 = Fc1ccc(N*)c(F)c1; AEEA = NCCOCCOCC(=O)O; Aib = CC(C)(N)C(=O)O; CO = O=C([*:1])[*:2]; GABA = NCCCC(=O)O; βAla = NCCC(=O)O

How the values were obtained:
Type in all cases: cell-based
[1] = target: T1, GIP receptor (Homo sapiens, UniProt P48546); test: PathHunter β-arrestin assay, GIP receptor; design: host or cells: PathHunter CHO-K1 GIPR β-Arrestin Cell Line
T1 sequence (P48546 22-466): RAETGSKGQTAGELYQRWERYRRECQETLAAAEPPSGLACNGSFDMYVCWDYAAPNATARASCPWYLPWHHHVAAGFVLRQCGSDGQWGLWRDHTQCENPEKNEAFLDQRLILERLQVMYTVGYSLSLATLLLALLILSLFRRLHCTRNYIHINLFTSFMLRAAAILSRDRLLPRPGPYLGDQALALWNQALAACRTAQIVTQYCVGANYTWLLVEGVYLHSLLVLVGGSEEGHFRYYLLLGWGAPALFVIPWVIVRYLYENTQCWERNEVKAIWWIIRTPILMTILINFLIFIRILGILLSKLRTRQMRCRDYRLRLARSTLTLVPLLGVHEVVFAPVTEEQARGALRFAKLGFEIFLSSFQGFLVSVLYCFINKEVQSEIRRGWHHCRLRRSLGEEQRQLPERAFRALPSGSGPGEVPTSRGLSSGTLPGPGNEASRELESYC

[2] = target: T2, GLP-1 receptor (Homo sapiens, UniProt P43220); test: PathHunter β-arrestin assay, GLP-1 receptor; design: host or cells: PathHunter CHO-K1 GLP1R β-Arrestin Cell Line
[3] = target: T1, GIP receptor; test: HitHunter cAMP assay, GIP receptor; settings: for Emax: read-out: Emax GIP-1R
[4] = target: T2, GLP-1 receptor; test: HitHunter cAMP assay, GLP-1 receptor; settings: for Emax: read-out: Emax GLP-1R
[5] = β-arrestin-2 recruitment, PathHunter CHO-K1 GIPR β-Arrestin Cell Line, 90 min at 37° C., normalized to GIP, read-out: GIPR β Arrestin EC50
[6] = β-arrestin-2 recruitment, PathHunter CHO-K1 GLP1R β-Arrestin Cell Line, 90 min at 37° C., normalized to GLP-1, read-out: GLP-1R β Arrestin EC50
[7] = CHO cells stably expressing GIP receptor, cAMP accumulation, 30 min, read-out: EC50 GIP-1R
[8] = CHO cells, cAMP, normalized to maximum signal from GIP (high) and DMSO (low)
[9] = CHO cells stably expressing human GLP-1 receptor, cAMP accumulation, 30 min, read-out: EC50 GLP-1R
[10] = CHO cells, cAMP, normalized to maximum signal from GLP-1 (high) and DMSO (low)

T2 sequence (P43220 24-463): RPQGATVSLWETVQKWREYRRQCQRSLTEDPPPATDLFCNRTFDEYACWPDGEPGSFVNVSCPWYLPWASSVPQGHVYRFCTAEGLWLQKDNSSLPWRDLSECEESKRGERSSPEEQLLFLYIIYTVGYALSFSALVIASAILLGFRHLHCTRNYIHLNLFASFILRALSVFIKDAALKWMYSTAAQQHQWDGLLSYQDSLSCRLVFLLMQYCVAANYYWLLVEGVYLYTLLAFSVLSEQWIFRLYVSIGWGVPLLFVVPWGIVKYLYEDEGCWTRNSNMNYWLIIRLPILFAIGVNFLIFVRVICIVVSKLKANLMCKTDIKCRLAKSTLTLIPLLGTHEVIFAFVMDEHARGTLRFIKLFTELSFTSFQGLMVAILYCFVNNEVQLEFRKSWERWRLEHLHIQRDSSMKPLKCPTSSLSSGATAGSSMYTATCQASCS

| Compound | EC50 [1] [nM] | EC50 [2] [nM] | EC50 [3] [nM] | Emax ([3]; CHO) [%] | EC50 [4] [nM] | Emax ([4]; CHO) [%] | EC50 [1, 5] [nM] | EC50 [2, 6] [nM] | EC50 [3, 7] [nM] | Emax [3, 8] [%] | EC50 [4, 9] [nM] | Emax [4, 10] [%] |
| --- | --- | --- | --- | --- | --- | --- | --- | --- | --- | --- | --- | --- |
| CC[C@H](C)[C@H](NC(=O)[C@H](CC(C)C)NC(=O)[C@H](Cc1c[nH]c2ccccc12)NC(=O)[C@H](CCC(N)=O)NC(=O)[C@@H](NC(=O)[C@H](Cc1ccccc1)NC(=O)[C@H](C)NC(=O)[C@H](CCCCNC(=O)COCCOCCNC(=O)COCCOCCNC(=O)CC[C@H](NC(=O)CCCCCCCCCCCCCCCCCCC(=O)O)C(=O)O)NC(=O)[C@H](CCC(N)=O)NC(=O)[C@H](C)NC(=O)[C@@H](NC(=O)[C@H](CCCCN)NC(=O)[C@H](CC(=O)O)NC(=O)[C@H](CC(C)C)NC(=O)C(C)(C)NC(=O)[C@@H](NC(=O)[C@H](CO)NC(=O)[C@H](Cc1ccc(O)cc1)NC(=O)[C@H](CC(=O)O)NC(=O)[C@H](CO)NC(=O)[C@@H](NC(=O)[C@H](Cc1ccccc1)NC(=O)[C@@H](NC(=O)CNC(=O)[C@H](CCC(=O)O)NC(=O)CCCNC(=O)CNC(=O)Nc1ccc(Cl)c(C(F)(F)F)c1)[C@@H](C)O)[C@@H](C)O)[C@@H](C)CC)[C@@H](C)CC)C(C)C)C(=O)N[C@@H](C)C(=O)NCC(=O)NCC(=O)N1CCC[C@H]1C(=O)N[C@@H](CO)C(=O)N[C@@H](CO)C(=O)NCC(=O)N[C@@H](C)C(=O)N1CCC[C@H]1C(=O)N1CCC[C@H]1C(=O)N1CCC[C@H]1C(=O)N[C@@H](CO)C(N)=O [Compound 265] ({NH(4-Cl-3-CF3-phenyl)-CO}-G[GABA]EGTFTSDYSI[Aib]LDKIAQK([AEEA-AEEA-γGlu-C20 diacid])AFVQWLIAGGPSSGAPPPS-NH2) | < 1000 | > 1000 | 1 to 10 | 107 | 10 to 100 | 94 | – | – | – | – | – | – |
| CC[C@H](C)[C@H](NC(=O)[C@H](CC(C)C)NC(=O)[C@H](Cc1c[nH]c2ccccc12)NC(=O)[C@H](CCC(N)=O)NC(=O)[C@@H](NC(=O)[C@H](Cc1ccccc1)NC(=O)[C@H](C)NC(=O)[C@H](CCCCNC(=O)COCCOCCNC(=O)COCCOCCNC(=O)CC[C@H](NC(=O)CCCCCCCCCCCCCCCCCCC(=O)O)C(=O)O)NC(=O)[C@H](CCC(N)=O)NC(=O)[C@H](C)NC(=O)[C@@H](NC(=O)[C@H](CCCCN)NC(=O)[C@H](CC(=O)O)NC(=O)[C@H](CC(C)C)NC(=O)C(C)(C)NC(=O)[C@@H](NC(=O)[C@H](CO)NC(=O)[C@H](Cc1ccc(O)cc1)NC(=O)[C@H](CC(=O)O)NC(=O)[C@H](CO)NC(=O)[C@@H](NC(=O)[C@H](Cc1ccccc1)NC(=O)[C@@H](NC(=O)CNC(=O)[C@H](CCC(=O)O)NC(=O)CCCNC(=O)CNC(=O)Nc1ccc(F)cc1F)[C@@H](C)O)[C@@H](C)O)[C@@H](C)CC)[C@@H](C)CC)C(C)C)C(=O)N[C@@H](C)C(=O)NCC(=O)NCC(=O)N1CCC[C@H]1C(=O)N[C@@H](CO)C(=O)N[C@@H](CO)C(=O)NCC(=O)N[C@@H](C)C(=O)N1CCC[C@H]1C(=O)N1CCC[C@H]1C(=O)N1CCC[C@H]1C(=O)N[C@@H](CO)C(N)=O [Compound 267] ({X29-CO}-G[GABA]EGTFTSDYSI[Aib]LDKIAQK([AEEA-AEEA-γGlu-C20 diacid])AFVQWLIAGGPSSGAPPPS-NH2) | – | – | – | – | – | – | > 1000 | > 1000 | 1 to 10 | 106 | 1 to 10 | 105 |
| CC[C@H](C)[C@H](NC(=O)[C@H](CC(C)C)NC(=O)[C@H](Cc1c[nH]c2ccccc12)NC(=O)[C@H](CCC(N)=O)NC(=O)[C@@H](NC(=O)[C@H](Cc1ccccc1)NC(=O)[C@H](C)NC(=O)[C@H](CCCCNC(=O)COCCOCCNC(=O)COCCOCCNC(=O)CC[C@H](NC(=O)CCCCCCCCCCCCCCCCCCC(=O)O)C(=O)O)NC(=O)[C@H](CCC(N)=O)NC(=O)[C@H](C)NC(=O)[C@@H](NC(=O)[C@H](CCCCN)NC(=O)[C@H](CC(=O)O)NC(=O)[C@H](CC(C)C)NC(=O)C(C)(C)NC(=O)[C@@H](NC(=O)[C@H](CO)NC(=O)[C@H](Cc1ccc(O)cc1)NC(=O)[C@H](CC(=O)O)NC(=O)[C@H](CO)NC(=O)[C@@H](NC(=O)[C@H](Cc1ccccc1)NC(=O)[C@@H](NC(=O)CNC(=O)[C@H](CC(=O)O)NC(=O)CCNC(=O)C(C)(C)c1cc(F)cc(C#N)c1)[C@@H](C)O)[C@@H](C)O)[C@@H](C)CC)[C@@H](C)CC)C(C)C)C(=O)N[C@@H](C)C(=O)NCC(=O)NCC(=O)N1CCC[C@H]1C(=O)N[C@@H](CO)C(=O)N[C@@H](CO)C(=O)NCC(=O)N[C@@H](C)C(=O)N1CCC[C@H]1C(=O)N1CCC[C@H]1C(=O)N1CCC[C@H]1C(=O)N[C@@H](CO)C(N)=O [Compound 108] ({Isobutyryl(2-(3-CN-5-F-Ph))-βAla}-DGTFTSDYSI[Aib]LDKIAQK([AEEA-AEEA-γGlu-C20 diacid])AFVQWLIAGGPSSGAPPPS-NH2) | – | – | – | – | – | – | < 1000 | > 1000 | 1 to 10 | 95 | < 0.1 | 93 |
| CC[C@H](C)[C@H](NC(=O)[C@H](CC(C)C)NC(=O)[C@H](Cc1c[nH]c2ccccc12)NC(=O)[C@H](CCC(N)=O)NC(=O)[C@@H](NC(=O)[C@H](Cc1ccccc1)NC(=O)[C@H](C)NC(=O)[C@H](CCCCNC(=O)COCCOCCNC(=O)COCCOCCNC(=O)CC[C@H](NC(=O)CCCCCCCCCCCCCCCCCCC(=O)O)C(=O)O)NC(=O)[C@H](CCC(N)=O)NC(=O)[C@H](C)NC(=O)[C@@H](NC(=O)[C@H](CCCCN)NC(=O)[C@H](CC(=O)O)NC(=O)[C@H](CC(C)C)NC(=O)C(C)(C)NC(=O)[C@@H](NC(=O)[C@H](CO)NC(=O)[C@H](Cc1ccc(O)cc1)NC(=O)[C@H](CC(=O)O)NC(=O)[C@H](CO)NC(=O)[C@@H](NC(=O)[C@H](Cc1ccccc1F)NC(=O)[C@@H](NC(=O)CNC(=O)[C@H](CCC(=O)O)NC(=O)CCNC(=O)C1(c2cccnc2)CCCC1)[C@@H](C)O)[C@@H](C)O)[C@@H](C)CC)[C@@H](C)CC)C(C)C)C(=O)N[C@@H](C)C(=O)NCC(=O)NCC(=O)N1CCC[C@H]1C(=O)N[C@@H](CO)C(=O)N[C@@H](CO)C(=O)NCC(=O)N[C@@H](C)C(=O)N1CCC[C@H]1C(=O)N1CCC[C@H]1C(=O)N1CCC[C@H]1C(=O)N[C@@H](CO)C(N)=O [Compound 231] ({X60-βAla}-EGT[Phe(2-F)]TSDYSI[Aib]LDKIAQK([AEEA-AEEA-γGlu-C20 diacid])AFVQWLIAGGPSSGAPPPS-NH2) | – | – | – | – | – | – | > 1000 | > 1000 | 0.1 to 1 | 110 | 0.1 to 1 | 111 |
| CC[C@H](C)[C@H](NC(=O)[C@H](CC(C)C)NC(=O)[C@H](Cc1c[nH]c2ccccc12)NC(=O)[C@H](CCC(N)=O)NC(=O)[C@@H](NC(=O)[C@H](Cc1ccccc1)NC(=O)[C@H](C)NC(=O)[C@H](CCCCNC(=O)COCCOCCNC(=O)COCCOCCNC(=O)CC[C@H](NC(=O)CCCCCCCCCCCCCCCCCCC(=O)O)C(=O)O)NC(=O)[C@H](CCC(N)=O)NC(=O)[C@H](C)NC(=O)[C@@H](NC(=O)[C@H](CCCCN)NC(=O)[C@H](CC(=O)O)NC(=O)[C@H](CC(C)C)NC(=O)C(C)(C)NC(=O)[C@@H](NC(=O)[C@H](CO)NC(=O)[C@H](Cc1ccc(O)cc1)NC(=O)[C@H](CC(=O)O)NC(=O)[C@H](CO)NC(=O)[C@@H](NC(=O)[C@H](Cc1ccccc1)NC(=O)[C@@H](NC(=O)CNC(=O)[C@H](CCC(=O)O)NC(=O)CCNC(=O)C1(n2cccn2)CCOC(C)C1)[C@@H](C)O)[C@@H](C)O)[C@@H](C)CC)[C@@H](C)CC)C(C)C)C(=O)N[C@@H](C)C(=O)NCC(=O)NCC(=O)N1CCC[C@H]1C(=O)N[C@@H](CO)C(=O)N[C@@H](CO)C(=O)NCC(=O)N[C@@H](C)C(=O)N1CCC[C@H]1C(=O)N1CCC[C@H]1C(=O)N1CCC[C@H]1C(=O)N[C@@H](CO)C(N)=O (stereo partly drawn) [Compound 105] ({X80-βAla}-EGTFTSDYSI[Aib]LDKIAQK([AEEA-AEEA-γGlu-C20 diacid])AFVQWLIAGGPSSGAPPPS-NH2) | – | – | – | – | – | – | > 1000 | > 1000 | 1 to 10 | 112 | 0.1 to 1 | 95 |
